Assay [1] has as its system B11 immortalized human gingival keratinocyte cell line. Description: Transepithelial electrical resistance (TER) of gingival keratinocyte barrier. The class given is cell-based. The following applies: no challenge; dilutions 1/500, 1/1000, 1/2000 or 0.025-0.2%; multiple time points; FIGS. 6, 9, 12. The procedure: (§1) Tight junction integrity was assessed by determining the trans-epithelial electrical resistance (TER). B11 gingival keratinocytes were seeded onto Costar™ Transwell™ clear polyester membrane inserts (6.5-mm diameter; 0.4-μm pore size; Corning Co., Cambridge, Mass., USA) at 3×10^5 cells per insert. The basolateral and apical compartments were filled with 0.6 mL and 0.1 mL of complete K-SFM, respectively. Following a 72-h incubation, the conditioned medium was replaced with antibiotic-free K-SFM, and the cells were incubated for a further 16 h. The TER values were measured using an Ohm/voltmeter (EVOM2; World Precision Instruments, Sarasota, Fla., USA) at 0, 4, 8, 24, 48, and 72 h. Resistance values were calculated in Ohms (Ω)/cm 2 by multiplying the resistance values by the filter surface area. Results were expressed as percentage of the basal control values measured at time 0 h (100% values) for each condition.

For assay [2], the system named is B11 gingival keratinocytes challenged with P. gingivalis. It is filed as cell-based, human. The note with it: P. gingivalis MOI=10^4; Example 4, FIGS. 15, 18, 21. The procedure: as §1
The subject of assay [3] is B11 gingival keratinocytes treated with TNF-α. Description: TER with TNF-α challenge. The class given is cell-based, human. The note with it: Example 5, FIGS. 24, 27, 29, 30. The procedure: as §1
(§2) Assays exposed cells to either TNFα only or TNFα+test composition. TNFα is known to cause tissue damage. A stock solution of recombinant TNF-α is prepared in sterile distilled water at 100 μg/ml. Thereafter, dilutions are made in keratinocyte culture medium. First dilution is 1/1000 to obtain 100 ng/ml. TNF-α and the test compounds are added simultaneously.
Keratinocyte barrier integrity was determined by monitoring transepithelial electrical resistance (TER). Briefly, keratinocytes (3×10^5 cells per insert; 0.1 ml) were seeded in the apical compartment of Costar™ Transwell™ clear polyester membrane inserts (6.5 mm in diameter, 0.4 μm pore size; Corning Co., Cambridge, Mass., USA), while the basolateral compartment was filled with 0.6 ml of culture medium. After 72-h of incubation, the conditioned culture medium was replaced with fresh antibiotic-free K-SFM, and the cells were further incubated for 16 h prior treating the cells. Recombinant human TNF-α (100 ng/ml; AnaSpec, Fremont, USA) and the formulations (final dilutions of 1/500, 1/1000, and 1/2000 (v/v for the aqueous solution; w/v for the dentifrice) under investigation were added to the apical compartment. The TER values were monitored using an ohm/voltmeter (EVOM^2; World Precision Instruments, Sarasota, Fla., USA) after 0, 6, 24, and 48 h of incubation. The TER values in Ohms (Ω)/cm^2 were determined by multiplying the resistance values by the surface area of the membrane filter. Results are expressed as the percentage of the basal control value measured at time 0-h (100% value).

The subject of assay [4] is hemolytic activity of P. gingivalis. Description: Hemolytic assay with sheep red blood cells. It is filed as cell-based, Porphyromonas gingivalis. The following applies: Example 6, FIGS. 37, 40, 43; red blood cells from sheep.
Method: A hemolytic assay is performed as follows. Fresh sheep red blood cells (Nutri-Bact, Terrebonne, QC, Canada) were harvested from heparinized whole blood by centrifugation (600×g for 5 min), washed three times in phosphate-buffered saline (PBS; pH 7.0), and suspended in PBS to a concentration of 2% (v/v). Equal volumes (1 mL) of red blood cells, P. gingivalis cells (OD660=1.0 in PBS), and two-fold serial dilutions of the Test composition were mixed together. PBS replaced the bacteria in the negative control. Following an incubation at 37° C. for 4 h, the mixtures were incubated at 4° C. for 1 h and were then centrifuged (10 000×g for 5 min) prior to recording the absorbance of the supernatants at 540 nm (A540). 1 ml P. gingivalis+1 ml of red blood cells+1 ml of test compounds used in the hemolysis assay are incubated at 37° C. for to 4 h. All constituents are added at the same time. […]
Fresh sheep red blood cells (Nutri-B act, Terrebonne, QC, Canada) were harvested from heparinized whole blood by centrifugation (600×g for 5 min), washed three times in phosphate-buffered saline (PBS; pH 7.0), and suspended in PBS to a concentration of 2% (v/v). […] Following an incubation at 37° C. for 4 h, the mixtures were incubated at 4° C. for 1 h and were then centrifuged (10 000×g for 5 min) prior to recording the absorbance of the supernatants at 540 nm (A540).
Assay [5] has as its system occludin and zonula occludens-1 in TNF-α-treated gingival keratinocytes. Description: Immunofluorescence of tight junction proteins with TNF-α challenge. It is filed as cell-based, human. The note with it: Example 5, FIGS. 26, 33, 34. The procedure: Gingival keratinocytes treated as described above for 12 h were immunostained for zonula occludens-1 and occludin, two tight junction proteins. Briefly, the cells were fixed in 50 mM phosphate-buffered saline (pH 7.2) (PBS) containing 4% paraformaldhehyde for 20 min, permeabilized with 0.1% Triton X-100 for 10 min, and blocked in 3% non-fat milk in 20 mM Tris-HCl (pH 8), 150 mM NaCl, and 0.5% Tween 20 for 40 min. […] After washing with PBS, the cells were then treated with ProLong® Diamond antifade (Life Technologies). The slides were sealed with nail polish and were kept in the dark at 4° C. The localization of tight junction proteins in B11 cells was visualized using an Olympus FSX100 fluorescence microscope and FSX-BSW imaging software (Olympus, Tokyo, Japan). Immunofluorescent staining of tight junction proteins is a qualitative assay.
as §2

Assay [6] relates to P. gingivalis. Description: P. gingivalis invasion / translocation through keratinocyte layer. The class given is cell-based, Porphyromonas gingivalis. The following applies: Example 6, FIGS. 36, 39, 42.
Method: Assays were performed to determine the extent formulations can inhibit and reduce invasion of cell monolayer by P. gingivalis.
The basolateral and apical compartments were filled with 0.235 mL and 0.075 mL of K-SFM, respectively. Following a 48-h incubation, the conditioned medium was replaced with antibiotic-free K-SFM. To determine the ability of P. gingivalis to penetrate the keratinocyte layer, FITC-labeled bacteria suspended in antibiotic-free K-SFM were added to the apical compartment of the double-chamber system at an MOI of 10^4. […] To evaluate the effect of the Dual Zinc plus Arginine aqueous solution and dentifrice on the invasive capacity of P. gingivalis, the keratinocyte layer was co-incubated with them and the bacteria. The translocation of FITC-labeled bacteria through the keratinocyte barrier was monitored using a Synergy 2 microplate reader by measuring the fluorescence (RUF; excitation wavelength 495 nm; emission wavelength 525 nm) in the medium recovered from the lower chamber following a 24-h incubation in an anaerobic chamber at 37° C.

`O=C([O-])CC(O)(CC(=O)[O-])C(=O)[O-].O=C([O-])CC(O)(CC(=O)[O-])C(=O)[O-].[Zn+2].[Zn+2].[Zn+2]` [zinc citrate]: the “TER measured as a percent of the initial value” in assay [1] is “increase in TER values with the increase in sample concentration”. Moreover, in assay [2], the “TER with P. gingivalis challenge” value is given as “protects tissue integrity from damage by P. gingivalis”. Moreover, the “TER with TNFα challenge” value in assay [3] is reported as “can prevent tissue from the TNFα induced TER decrease”. For the same compound, the “inhibition of hemolytic activity of P. gingivalis” value in assay [4] was “inhibited P. gingivalis hemolysis”.
Take `[O]=[Zn]` [zinc oxide]: the “TER measured as a percent of the initial value” in assay [1] is “increase in TER values with the increase in sample concentration”. The “TER with P. gingivalis challenge” value in assay [2] was “protects tissue integrity from damage by P. gingivalis”. For the same compound, the “TER with TNFα challenge” value in assay [3] is reported as “prevented tissue from the TNFα induced TER decrease”. Further, the “TNFα induced cell junction disorganization (immunofluorescence)” value in assay [5] is “prevents TNFα induced cell junction disorganization”. For the same compound, in assay [6], the “invasion of an epithelial cell monolayer by P. gingivalis” value is “inhibits invasion of an epithelial cell monolayer”. In addition, the “inhibition of hemolytic activity of P. gingivalis” value in assay [4] was “inhibited P. gingivalis hemolysis”.

Values taken from patent US20210308028A1, “Compositions and Methods for Maintaining and Protecting Tissue Integrity and Barrier Function” (Colgate-Palmolive Company, priority 2020, published 2021).
